The values below come from ChEMBL document CHEMBL4725367, “Novel anticancer Hsp90 inhibitor disubstituted pyrazolyl 2-aminopyrimidine compound 7t induces cell cycle arrest and apoptosis via mitochondrial pathway in MCF-7 cells” (Bioorg Med Chem Lett, 2020).

In test [1] the target is T1, Heat shock protein HSP90 (Homo sapiens) (UniProt P07900+P08238). Put plainly: Inhibition of HSP90 in human MCF7 cells assessed as induction of mitochondrial membrane potential loss by measuring cell population with mitochondrial membrane potential collapse at 1 uM after 24 hrs by JC1 staining-based flow cytometry analysis (reference value: 6.53 %). The arrangement: scale not given: the % may be the effect or the level left. In general terms: A flow cytometer gives signals particle by particle.

Test [2] deals with T1, Heat shock protein HSP90 (Homo sapiens). Briefly: Inhibition of HSP90 in human MCF7 cells assessed as induction of apoptosis by measuring late apototic cells at 1 uM measured after 24 hrs by annexinV-FITC/propidium iodide staining based flow cytometry (reference value: 7.91 %). It counts as cell-based. Also noted: scale not given: the % may be the effect or the level left.

Test [3] shares this target. Put plainly: Inhibition of HSP90 in human MCF7 cells assessed as induction of morphological changes by measuring nuclei condensation at 1 uM by acridine orange/ethidium bromide staining based fluorescence microscopy analysis. It counts as cell-based.
For test [4] the target is unchanged. Briefly: Inhibition of HSP90 in human MCF7 cells assessed as induction of apoptosis by measuring necrotic cells at 1 uM measured after 24 hrs by annexinV-FITC/propidium iodide staining based flow cytometry (reference value: 0.01 %). It is filed as cell-based. Also noted: scale not given: the % may be the effect or the level left.
For test [5] the target is unchanged. Briefly: Inhibition of HSP90 in human MCF7 cells assessed as cell cycle arrest by measuring accumulation at G2/M phase at 1 uM measured after 24 hrs by RNaseA/propidium iodide staining based flow cytometric analysis (reference value: 25.08 %). The arrangement: scale not given: the % may be the effect or the level left.
Test [6] has the same target. Briefly: Inhibition of HSP90 in human MCF7 cells assessed as cell cycle arrest by measuring accumulation at G0/G1 phase at 1 uM measured after 24 hrs by RNaseA/propidium iodide staining based flow cytometric analysis (reference value: 39.10 %). Also noted: scale not given: the % may be the effect or the level left.
For test [7] the target is unchanged. Put plainly: Inhibition of HSP90 in human MCF7 cells assessed as induction of mitochondrial membrane potential loss by measuring cell population with intact mitochondrial membrane potential at 1 uM after 24 hrs by JC1 staining-based flow cytometry analysis (reference value: 92.39 %). The arrangement: scale not given: the % may be the effect or the level left.

Test [8] shares this target. Put plainly: Inhibition of HSP90 in human MCF7 cells assessed as induction of apoptosis by measuring early apototic cells at 1 uM measured after 24 hrs by annexinV-FITC/propidium iodide staining based flow cytometry (reference value: 1.31 %). It is filed as cell-based. Also noted: scale not given: the % may be the effect or the level left.
The target is the same in test [9]. Put plainly: Inhibition of HSP90 in human MCF7 cells assessed as cell cycle arrest by measuring accumulation at S phase at 1 uM measured after 24 hrs by RNaseA/propidium iodide staining based flow cytometric analysis (reference value: 7.08 %). The arrangement: scale not given: the % may be the effect or the level left.
Test [10] shares this target. Put plainly: Inhibition of HSP90 in human MCF7 cells assessed as increase in ROS generation by measuring fluorescence intensity at 10 uM after 24 hrs by DCFDA staining based flow cytometry. It counts as cell-based.
For test [11] the target is unchanged. Briefly: Inhibition of HSP90 in human MCF7 cells assessed as induction of apoptosis by measuring live cells at 1 uM measured after 24 hrs by annexinV-FITC/propidium iodide staining based flow cytometry (reference value: 90.77 %). It is filed as cell-based. The arrangement: scale not given: the % may be the effect or the level left.
Test [12] has the same target. Briefly: Inhibition of HSP90 in human MCF7 cells assessed as cell cycle arrest by measuring accumulation at Sub-G1 phase at 1 uM measured after 24 hrs by RNaseA/propidium iodide staining based flow cytometric analysis (reference value: 3.75 %). The arrangement: scale not given: the % may be the effect or the level left.
Test [13] shares this target. Briefly: Inhibition of HSP90 in human MCF7 cells assessed as induction of apoptosis by measuring total apoptotic and dead cell population at 1 uM measured after 24 hrs by annexinV-FITC/propidium iodide staining based flow cytometry (reference value: 9.23 %). Also noted: scale not given: the % may be the effect or the level left.
The target is the same in test [14]. Put plainly: Inhibition of HSP90 in human MCF7 cells assessed as induction of morphological changes by measuring membrane blebbing at 1 uM by acridine orange/ethidium bromide staining based fluorescence microscopy analysis. It is filed as cell-based.
Test [15] shares this target. Briefly: Inhibition of HSP90 in human MCF7 cells assessed as induction of nuclear morphological changes by measuring nuclear fragmentation at 1 uM by DAPI staining based fluorescence microscopy analysis. It counts as cell-based.
Test [16] has the same target. Put plainly: Inhibition of HSP90 in human MCF7 cells assessed as induction of nuclear morphological changes by measuring horse shoe shaped nuclei formation at 1 uM by DAPI staining based fluorescence microscopy analysis. It counts as cell-based.
For test [17] the target is unchanged. Briefly: Inhibition of HSP90 in human MCF7 cells assessed as induction of morphological changes by measuring apoptotic body formation at 1 uM by acridine orange/ethidium bromide staining based fluorescence microscopy analysis. It is filed as cell-based.

The source made the active and inactive calls. The rule behind the calls is not given here.

With `O=c1[nH]cc(F)c(=O)[nH]1`, the Activity stood at 26.8% in [1]; 27.2% in test [2]; 0.36% in test [4]; 26.4% in test [5]; 27.4% in test [6]; 70.3% in test [7]. The Activity in test [8] amounted to 1.94%; in test [9], 7.99%; in test [11], 70.5%; in test [12], 12.2%; in [13], 29.5%. Besides, the inhibition entry in [3], in test [10], in [14], in test [16] and in [17] was “Active” each time. For the same molecule, the result in test [15] was Active.
